Drawing on patent US4797400A, “Piperazine compounds and anti-ulcer composition containing the same” (Kanebo, Ltd., priority 1986, dated 1989), this text covers ED50 and LD50 for three compounds.

For series [1], the system named is ethanol-induced gastric ulcer. The series is described as follows: Inhibitory effect on ethanol-induced gastric ulcer. Format: in vivo, male Sprague-Dawley (SD) rats. The following applies: Rattus norvegicus, po, 1 h; p.o.; male SD rats; ethanol (99.5%, 1 ml) orally 30 minutes after test compound; ulcer index after one hour. The method, then: The compounds of this invention have potent activity for promoting the action of the defensive factor. The activity can be evaluated by the defensive action against ulcer induced by ethanol (e.g. inhibitory effect on ethanol-induced gastric ulcer) [cf. Hara, Nobuyuki et al., Pharmacometrics, 29, 557 (1985)]. […] Inhibitory effect on ethanol-induced gastric ulcer: Male Sprague-Dawley (SD) rats (weighing 180-220 g, 8 weeks age, 16 rats per group) were fasted for 24 hours, and to the rats was orally administered the test compound in the form of a solution in distilled water or a suspension in 1% aqueous gum arabic. After 30 minutes, ethanol (99.5%, 1 ml) was orally administered to the rats in the same manner as described by Robert et al. [cf. Gastroenterology, 77, 433 (1979)]. One hour after the administration of ethanol, the rats were sacrificed under ether anesthesia, and the stomach was removed. Into the stomach was poured 1% formalin (12 ml), and then the stomach was immersed in 1% formalin for 15 minutes. The stomach was cut along the greater curvature, and the length (mm) of each ulcer occured on the fundic mucosa was measured with a dissecting microscope. Sum of the length of ulcers in each rat was used as the ulcer index in each rat. In control rats to which no test compound was administered, the ulcer index was determined likewise, and the mean value (mean ulcer index) was calculated. […] A dose-response curve was drawn based on the ratio thus obtained and the dose of test compounds, and therefrom, the 50% effective dose (ED50) was determined.

The test system of series [2] is water-immersion stress-induced gastric ulcer. Description: Inhibitory effect on water-immersion stress-induced gastric ulcer. The series is classed as in vivo. As to conditions: Rattus norvegicus, po; male SD rats; water bath at 23° C., 17 hours. The procedure: Inhibitory effect on water-immersion stress-induced gastric ulcer: Male SD rats (weighing 190-230 g, 8 weeks age, 16 rats per group) were fasted for 24 hours, and to the rats was orally administered the test compound in the form of a solution in distilled water or a suspension in 1% aqueous gum arabic. After 15 minutes, the rats were immersed vertically to the height of the xiphoid of the rats in water bath at 23° C. within a stress cage in the same manner as described by Takagi et al. [cf. Japanese Journal of Pharmacology, 18, 9 (1968)]. After 17 hours, the rats were sacrificed under ether anesthesia and the stomach was removed. The stomach was treated with formalin and the ulcer index as well as ED50 were determined in the same manner as described in Experiment 1.

Series [3] is described as follows: Acute toxicity. The following applies: mouse, in vivo, po; male ddY mice; death observed for 7 days; Weil's method. The procedure:
To male ddY mice (weighing 18-22 g, 4 weeks age, […] mice per group) fasted overnight was orally administered the test compound in the form of a solution in distilled water or a suspension in 1% aqueous gum arabic. […] From the number of dead mice, LD50 was determined in the same manner as Weil's method.

For series [4], the system named is indomethacin-induced gastric ulcer. Description: Inhibitory effect on indomethacin-induced gastric ulcer. The following applies: Rattus norvegicus, po; male SD rats; indomethacin 30 mg/kg s.c.; ulcer index after 5 hours. The series is classed as in vivo. The procedure: Inhibitory effect on indomethacin-induced gastric ulcer: It was done in the same manner as described by Okabe et al. [cf. Digestive Diseases and Science, 28, 1034 (1983)]. That is, male SD rats (weighing 180-220 g, 8 weeks age, 16 rats per group) were fasted for 24 hours, and to the rats was orally administered the test compound in the form of a solution in distilled water or a suspension in 1% aqueous gum arabic. After 15 minutes, to the rats was subcutaneously administered indomethacin (30 mg/kg) in the form of a solution in 3% aqueous sodium hydrogen carbonate solution. After 5 hours, the rats were sacrificed under ether anesthesia and the stomach was removed. The stomach was treated with formalin and the ulcer index as well as ED50 were determined in the same manner as described in Experiment 1.

Structures can show the parent of a compound that is named as a salt.

Consider `COc1ccc(OC(=O)CN2CCN(Cc3cc(OC)c(OC)c(OC)c3)CC2)cc1.O.O=C(O)/C=C/C(=O)O.O=C(O)/C=C/C(=O)O` [Compound 2, 1-[(4-Methoxyphenoxy)carbonylmethyl]-4-(3,4,5-trimethoxybenzyl)piperazine difumarate monohydrate], for which the results for the ED50 in series [1], in series [2] and in series [4] were 30 mg/kg, 123 mg/kg and 11 mg/kg, respectively. Besides, in series [3], the LD50 at 168 h worked out at 4800 mg/kg.
As for `COc1ccc(OC(=O)CN2CCN(Cc3ccc(OC)c(OC)c3OC)CC2)cc1.Cl.Cl` [Compound 1, 1-[(4-Methoxyphenoxy)carbonylmethyl]-4-(2,3,4-trimethoxybenzyl)piperazine dihydrochloride], the ED50 was 27 mg/kg in series [1], 88 mg/kg in series [2] and 10 mg/kg in series [4]. This compound displayed an LD50 at 168 h in series [3] of 4200 mg/kg.
`NC[C@H]1CC[C@H](C(=O)Oc2ccc(CCC(=O)O)cc2)CC1` [Reference compound, Cetraxate hydrochloride, reference compound]: the ED50 was 112 mg/kg in series [1], more than 1000 mg/kg in series [2] and 361 mg/kg in series [4]. The LD50 at 168 h in series [3] was more than 8000 mg/kg.
